# Test results reported in publication PMC2367043, “Effects of Ursolic Acid and its Analogues on Soybean 15-Lipoxygenase Activity and the Proliferation Rate of A human Gastric Tumour Cell Line” (Mediators of Inflammation, 1994).
# pIC50: −log10 of the molar value. Where two headings read alike, the source gives them in different places.
# Biological target: T1, soybean 15-lipoxygenase (Glycine max, UniProt P08170)
# T1 construct: gene LOX1.1
# T1 sequence (P08170 1-839): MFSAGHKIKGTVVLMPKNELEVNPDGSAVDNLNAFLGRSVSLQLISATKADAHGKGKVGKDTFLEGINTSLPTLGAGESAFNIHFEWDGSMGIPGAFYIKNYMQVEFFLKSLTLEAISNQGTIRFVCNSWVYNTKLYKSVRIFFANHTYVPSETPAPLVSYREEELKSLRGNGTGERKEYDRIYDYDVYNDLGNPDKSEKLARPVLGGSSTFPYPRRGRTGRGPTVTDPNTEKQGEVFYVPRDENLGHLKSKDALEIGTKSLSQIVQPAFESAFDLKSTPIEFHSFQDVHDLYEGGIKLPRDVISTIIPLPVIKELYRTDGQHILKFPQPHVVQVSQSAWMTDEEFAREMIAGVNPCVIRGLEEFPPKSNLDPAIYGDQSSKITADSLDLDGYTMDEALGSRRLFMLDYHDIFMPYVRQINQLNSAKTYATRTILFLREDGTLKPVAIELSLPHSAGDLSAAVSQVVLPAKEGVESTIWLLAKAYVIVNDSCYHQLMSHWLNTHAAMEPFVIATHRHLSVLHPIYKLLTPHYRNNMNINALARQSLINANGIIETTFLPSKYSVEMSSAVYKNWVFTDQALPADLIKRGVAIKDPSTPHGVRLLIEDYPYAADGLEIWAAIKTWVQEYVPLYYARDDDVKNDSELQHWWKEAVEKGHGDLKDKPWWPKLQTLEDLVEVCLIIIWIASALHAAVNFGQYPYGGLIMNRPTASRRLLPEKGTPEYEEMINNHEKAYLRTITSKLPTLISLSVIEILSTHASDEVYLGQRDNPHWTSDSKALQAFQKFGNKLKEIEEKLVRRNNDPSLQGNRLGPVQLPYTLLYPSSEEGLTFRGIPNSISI
# Assay: spectrophotometric assay at […] nm of […](S)-HPODE formation from linoleic acid, pH […]
# Format: biochemical
pIC50 (read-out: IC50),Structure (SMILES),pIC50
–,CC1(C)CC[C@]2(C(=O)O)CC[C@]3(C)C(=CC[C@@H]4[C@@]5(C)CC[C@H](O)C(C)(C)[C@@H]5CC[C@]43C)[C@@H]2C1 [oleanolic acid],3.58
3.76,C[C@H]1[C@H](C)CC[C@]2(C(=O)O)CC[C@]3(C)C(=CC[C@@H]4[C@@]5(C)CC[C@H](O)C(C)(C)[C@@H]5CC[C@]43C)[C@H]12 [ursolic acid],–
